Data taken from paper PMC6333442, “Conserved allosteric pathways for activation of TRPV3 revealed through engineering vanilloid-sensitivity” (eLife, 2019).
Residue numbers refer to the chain shown, from its start.

Key:
[1] = target: T1, TRPV3-6M + V587L (Mus musculus, UniProt Q8K424, A560T/F522S/H523E/L557M/Q580E/V587L/W521Y); assay: Two-electrode voltage clamp, TRPV3-6M + V587L, RTx concentrations; assay type: cell-based
T1 construct: expressed in transfected cells; host or cells: Xenopus laevis oocytes
T1 sequence (Q8K424 1-791 W521Y/F522S/H523E/L557M/A560T/Q580E/V587L): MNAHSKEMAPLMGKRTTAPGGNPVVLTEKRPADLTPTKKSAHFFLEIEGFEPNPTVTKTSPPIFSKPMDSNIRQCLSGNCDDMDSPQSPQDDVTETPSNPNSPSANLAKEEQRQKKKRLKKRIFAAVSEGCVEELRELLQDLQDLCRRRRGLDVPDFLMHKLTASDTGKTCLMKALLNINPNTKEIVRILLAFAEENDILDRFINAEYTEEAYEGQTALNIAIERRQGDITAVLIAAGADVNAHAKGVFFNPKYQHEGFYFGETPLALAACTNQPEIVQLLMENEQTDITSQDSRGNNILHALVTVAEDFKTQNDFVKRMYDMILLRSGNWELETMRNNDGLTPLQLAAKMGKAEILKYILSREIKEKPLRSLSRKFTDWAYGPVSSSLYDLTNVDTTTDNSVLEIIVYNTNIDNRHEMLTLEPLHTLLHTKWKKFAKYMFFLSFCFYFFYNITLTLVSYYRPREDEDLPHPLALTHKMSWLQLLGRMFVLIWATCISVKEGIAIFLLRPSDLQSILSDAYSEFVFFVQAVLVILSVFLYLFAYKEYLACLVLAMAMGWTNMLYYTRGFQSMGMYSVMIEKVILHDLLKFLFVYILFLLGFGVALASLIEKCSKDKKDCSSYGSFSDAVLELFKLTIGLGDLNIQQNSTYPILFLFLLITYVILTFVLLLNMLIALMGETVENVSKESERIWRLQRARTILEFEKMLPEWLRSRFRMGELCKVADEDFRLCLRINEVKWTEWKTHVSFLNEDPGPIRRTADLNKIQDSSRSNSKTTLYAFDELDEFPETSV
Method: (§1) All channel constructs were expressed in Xenopus laevis oocytes and studied using the two-electrode voltage clamp technique (TEVC) following 1–4 days of incubation after cRNA injection. The animal care and experimental procedures were performed in accordance with the Guide for the Care and Use of Laboratory Animals and were approved by the Animal Care and Use Committee of the National Institute of Neurological Disorders and Stroke (Animal protocol number 1253–17). Oocytes were removed surgically and incubated with agitation for 1 hr in a solution containing (in mM) 82.5 NaCl, 2.5 KCl, 1 MgCl2, 5 HEPES, pH 7.6 (with NaOH), and collagenase (2 mg/ml; Worthington Biochemical, Lakewood, NJ). Defolliculated oocytes were injected with cRNA for each of the constructs and incubated at 17°C in a solution containing (in mM) 96 NaCl, 2 KCl, 1 MgCl2, 1.8 CaCl2, 5 HEPES, pH 7.6 (with NaOH), and gentamicin (50 μg/ml, GIBCO-BRL, Gaithersburg, MD). Oocyte membrane voltage was controlled using an OC-725C oocyte clamp (Warner Instruments, Hamden, CT). Data were filtered at 1–3 kHz and digitized at 20 kHz using pClamp software (Molecular Devices, Sunnyvale, CA) and a Digidata 1440A digitizer (Axon Instruments). Microelectrode resistances were 0.1–1 MΩ when filled with 3 M KCl. For recording TRP channel currents, the external recording solution contained (in mM) 100 KCl, 10 HEPES, pH 7.6 (with KOH). […]

[2] = target: T2, TRPV3-6M/4PM (Mus musculus, UniProt Q8K424, A560T/F522S/F625L/F656I/F666Y/H523E/L557M/Q580E/V587L/W521Y); assay: Two-electrode voltage clamp, TRPV3-6M/4PM in oocytes; assay type: cell-based; conditions: RTx 100 nM, 2-APB 3 mM, +60 mV
T2 construct: expressed in transfected cells; host or cells: Xenopus laevis oocytes
T2 sequence (Q8K424 1-791 W521Y/F522S/H523E/L557M/A560T/Q580E/V587L/F625L/F656I/F666Y): T1 sequence (Q8K424 1-791 W521Y/F522S/H523E/L557M/A560T/Q580E/V587L) with F625L, F656I, F666Y
Method: as §1

For `C=C(C)[C@]12C[C@@H](C)[C@@]34O[C@](Cc5ccccc5)(O[C@@H]1[C@@H]3C=C(COC(=O)Cc1ccc(O)c(OC)c1)C[C@]1(O)C(=O)C(C)=C[C@@H]41)O2` [RTx, resiniferatoxin], the “dissociation of RTx” value [1] was “exceedingly slow” and the “response to RTx compared with maximal response to 2-APB” value [2] was “similar”.
